Assay results reported in patent US7094754B2, “Anti-aging and wound healing compounds” (Kimberly-Clark Worldwide, Inc., priority 2001, dated 2006).

Columns and labels:
[1] = tested on: wounds in C57BL6/KsJ db/db mice; assay: Wound healing in db/db diabetic mice; assay type: in vivo
Description: Wounds were created in C57BL6/KsJ db/db mice with a 4 mm biopsy punch. The mice were obtained from The Jackson Laboratories and were aged 3-7 months before the onset of the wounding protocol. All mice were anesthetized prior to wounding. Two wounds were introduced onto the upper back of each animal by pulling the skin away from underlying structures and pushing the punch through the isolated skin. Typically, wounds were created to an average depth of 1.7 mm, with a range of 1.3 to 2.2 mm. No muscle involvement occurred during the course of wounding.
Each day the wounds were digitally photographed and wound areas were determined by computer integration of the photographs. All wound treatments and the subsequent data analyses were performed in a blind manner (see e.g., Brown et al., 1994). Wound area at the time of wounding (day 0) is arbitrarily set to a relative value of 1 for all wounds; such that subsequent wound areas are converted to relative wound areas by dividing the wound area at day n by the wound area at day zero.

[2] = tested on: human skin fibroblast cell line (Clonetics, CC-2509); assay: Collagen production in human skin fibroblasts (Takara EIA kit); assay type: cell-based; details: for collagen production, Median (absorbance at 450 nm) / collagen production, Mean (absorbance at 450 nm): 48 hours; for collagen production, Mean (absorbance at 450 nm): n=2, control mean 0.7388
Experimental: The stimulation response of the 19mer peptide (SEQ ID NO:11) on collagen production in the human skin fibroblast cell line (Clonetics, Walkersville, Md., normal human dermal fibroblasts, neonatal, catalog number CC-2509) was measured using Takara Biomedicals EIA assay kit (TAK MK101) sold by Panvera (Madison, Wis.). The cells were first grown in a 96-well assay system using Dulbecco's Modified Eagle's Medium (DMEM) with 10% fetal bovine serum (FBS) both purchased from Sigma Chemical Co, St. Louis, Mo. Serum-free DMEM was used as a control. […] Plates were incubated for 24 hours at 37° C. in a humidified 5% CO2 atmosphere. After incubation, the medium was aspirated and the wells were rinsed twice with 100 μl of serum-free DMEM. […] In addition, 100 μl of vehicle (serum-free DMEM) was added to 4 wells as control. All wells were incubated for 48 hours at 37° C. in a humidified, 5% CO2 atmosphere.
The assay was performed using the recommended 20 ul of the supernatant from each well of the 96-well plate. Standard buffer and stop solutions were freshly prepared before running the assay. 100 ul of antibody-POD conjugate solution (supplied with the kit) was added into the wells using pre antibody coated 96 well plate (supplied with the kit). 20 ul of standard and test solutions (from the other 96-well plate containing fibroblasts) were added to appropriate wells. Plate was mixed gently, sealed and incubated for three hrs. at 37° C.
After incubation each well was washed carefully four times with PBS buffer (400 ul). All the wells were completely emptied at the end of washing from any liquid. 100 ul of substrate solution (hydrogen peroxide and tetramethylbenzidine in a buffer solution, supplied with the kit) was added to each well and the plate was incubated for 15 minutes. At this point 100 ul of stop solution (freshly prepared 1N H2SO4) was added to each well in the same order as substrate. The plate was gently mixed and absorbance was read at 450 nm. Results were analyzed statistically using one-way ANOVA.

[3] = tested on: normal human epidermal keratinocytes (Clonetics, CC-2503); assay: Keratinocyte proliferation assay; assay type: cell-based; details: 48 hours
Experimental: The proliferative response of these human skin keratinocytes to the 19mer peptide (SEQ ID NO:11) was measured in a 96-well assay system using keratinocyte basal medium (KBM, Clonetics, catalog number CC-3103) as a control. […] The plates were incubated for 24 hours at 37° C. in a humidified 5% CO2 atmosphere. […] In addition, 100 μl of vehicle KBM was added to 10 wells as control. The plate was incubated for 48 hours at 37° C. in a humidified, 5% CO2 atmosphere. After incubation, 20 μl of Cell Titer 96 Aqueous One Solution was added to all wells. The plate was swirled gently and placed back in the incubator for 3 hours. The spectrophotometric absorbance of each well was read at 490 nm. Results were analyzed statistically using one-way ANOVA.

CC(C)[C@H](NC(=O)[C@H](CC(=O)O)NC(=O)[C@@H]1CCCN1C(=O)[C@H](CC(N)=O)NC(=O)CNC(=O)[C@H](CS)NC(=O)[C@H](CCCNC(=N)N)NC(=O)[C@@H]1CCCN1)C(=O)N[C@@H](C)C(=O)N[C@@H](CC(N)=O)C(=O)N[C@@H](Cc1ccc(O)cc1)C(=O)N[C@@H](CC(N)=O)C(=O)N[C@@H](Cc1ccccc1)C(=O)N[C@@H](Cc1ccccc1)C(=O)N1CCC[C@H]1C(=O)N[C@@H](CCCNC(=N)N)C(=O)N[C@@H](CCCCN)C(=O)N1CCC[C@H]1C(=O)N[C@@H](CCCCN)C(=O)O [19-mer]
time to full wound closure (average) ([1]; single dose 5 μL of 20 μg/mL at time of wounding, saline control 14 days): 9 days post wounding | start of wound contraction process ([1]; single dose 5 μL of 20 μg/mL, saline control day 8): 5 days | collagen production, Median (absorbance at 450 nm) ([2]; 1×10^−5 M): 0.8365 | collagen production, Mean (absorbance at 450 nm) ([2]; 1×10^−5 M): 0.8365 | collagen production, Median (absorbance at 450 nm) ([2]; 1×10^−6 M): 0.8315 | collagen production, Mean (absorbance at 450 nm) ([2]; 1×10^−6 M): 0.8315 | collagen production versus control ([2]; 10^−5 and 10^−6 M, P<0.001): increased collagen production at both concentrations employed | keratinocyte growth (OD 490 nm) versus control ([3]; 1×10^−4 M): even greater cell growth | keratinocyte growth (OD 490 nm) versus control ([3]; 1×10^−5 M): significantly greater cell density | keratinocyte growth (OD 490 nm) versus control ([3]; 1×10^−6 M): only a small amount of cell proliferation
